Like-named read-outs stand apart in the source and are kept apart here.
Legend:
[1] = Release of nitric oxide in vitro (Griess reagent, nitrite); conditions: 10^−4 mol/L tested substance, phosphate buffer pH 7.4, cysteine 5 mmol/L, 37° C., 1 h; as nitrite
Description: Experiment 1. Experimental Study on the Tested Compounds for Releasing Nitric Oxide in vitro
Experimental Procedure: • (1) Preparation of Griess Reagent: 4 g of aminobenzenesulfonamide, 0.2 g of N-naphthyl ethylene diamine hydrochloride, and 10 mL of 85% phosphoric acid solution were taken to form a solution, which is diluted to 100 mL with distilled water. • (2) Plotting of the standard curve: a serie of standard solution of 0.01, 0.03, 0.05, 0.07, 0.09, 0.2, 0.4 μg/mL of nitrite nitrogen was prepared, 10 mL of each was taken to sufficiently mix with 2.5 mL of Griess reagent, standing at room temperature for 10 min, and its absorbance value at the wavelength of 540 nm was measured. The standard curve was plotted based on the resulting data. • (3) Measuring the amount of the released NO of the tested drug: all of the tested substances were dissolved in dimethylsulfoxide (1 mL) firstly. Then phosphate buffer (pH 7.4) was slowly added dropwise, and shaken. The drug solution was diluted to 50 mL, allowing the buffer solution to contain excess cysteine (5 mmol/L), and the final concentration of the tested substances being 10^−4 mol/L; the solution was incubated at 37° C. 2 mL of the reaction solution was taken to mix with 500 μl of Griess reagent at 1 h respectively, standing at room temperature for 10 min. The absorbance value of the mixture at 540 nm was measured. Isosorbide mononitrate was used as a positive control, and H130 was used as a negative control. The amount of the released NO was represented by the amount of its oxidation product, nitrite (NO2^−).

ApoA-I mRNA = test: Regulation of ApoA-I mRNA in HepG2 cells (real-time PCR); format: cell-based; set-up: key: Active: When 100 μM of the tested compound allowed ApoA-I mRNA in HepG2 cells to increase more than 15%, then the test compound was known as an ApoA active compound; conditions: 100 μM, 48 h, relative to DMSO control
Description: Experiment 5. Regulation of the Tested Compounds on ApoA-I mRNA HepG2 cells were cultured for 24 h in a 24-well plate with 400 μl of MEM medium containing 0.5% (v/v) of fetal bovine serum. Then each of the tested compounds (100 μM) and the positive control RVX-208 (100 μM) were added. The cells were cultured for another 48 h. The medium was aspirated out. After washing with 200 μl of PBS, 85 μl of cell lysis solution was added into the cells in each well. The cells were incubated at room temperature for 5 to 10 min to be completely dissolved and detached. The mRNA was extracted from the cells with a kit. The extracted mRNA were used for a real-time fluorescence quantitative PCR detection with RNA Fluorescence (RiboGreen) Quantitation Assay Kit and ApoA-I mRNA Primer-Probe Mixture from the company of Applied Biosystems.
After obtaining the Ct values, the induction fold of each test compound relative to DMSO control was calculated. The induction fold was used to reflect the ability of regulating ApoA-I mRNA for the tested compounds. When 100 μM of the tested compound allowed ApoA-I mRNA in HepG2 cells to increase more than 15%, then the test compound was known as an ApoA active compound.

apoE−/− mice = test: apoE−/− mouse atherosclerosis model, high-fat diet 10 weeks; format: in vivo; conditions: for Aorta eNOS / ApoA1 / Heart eNOS / Serum NO / Serum eNOS: blank administration group = 100, 150 mg/kg twice a day, 10 weeks; for HDL-C / LDL-C / TC: serum, high-fat diet 10 weeks, intragastric 150 mg/kg twice a day
Excerpt: Experimental method: 36 eight-week-old male apoE-/- mice were selected and randomly divided into a blank administration group, an […] administration group, an […] administration group, an […] administration group, an […] administration group, and an […] administration group, 6 mice per group. The mice in each group were fed with high-fat diet for 10 weeks. At the beginning of the high-fat feeding, the mice in each group were administrated. Each tested compound was intragastric administered at the dose of 150 mg/kg twice a day. The blank administration group was given corresponding dose of saline. […] After the blood was taken, the serum, heart, and aorta were isolated. The levels of total cholesterol (TC), high density lipoprotein cholesterol (HDL-C), and low density lipoprotein cholesterol (LDL-C) in the serum of the mice in each group were measured by automatic biochemical analyzer. The ApoA1 expression level was detected with an ApoA1 kit. The content of NO in the serum of the mice was determined with a total NO test kit (Beyotime). The NOS activities of the heart, aorta, and serum were determined with an NOS test kit (Beyotime). The content of eNOS was calculated by the difference between the measured values determined before and after adding eNOS inhibitor L-NAME (Beyotime).

C57BL/6 mice = test: Serum NO level in C57 mice after oral gavage; format: in vivo; conditions: oral gavage 150 mg/kg (positive drug 5 mg/kg), FIG. 1
Excerpt: Experimental method: 60 eight-week-old C57BL/6 mice (level: SPF; gender: male; source: Shanghai SLAC Laboratory Animal Co., Ltd.) were selected. […] were selected as the blank control. 12 mice were used as the positive drug control (isosorbide mononitrate). 12 mice were used as […] administration group. The other 32 mice were randomly divided into 4 groups, 8 mice per group, which are […] administration group, […] administration group, […] administration group, and […] administration group, respectively. The tested compounds of the positive drug control group and each administration group were dissolved in DMSO and then PEG400 was added thereto. The mixture was shaken and mixed thoroughly. At last, 10% of HP-β-CD was added. The mixture was shaken and mixed thoroughly. The ratio of each solvent was DMSO: PEG400:10% of HP-β-CD=5:67.5:27.5. The administration groups were administered by oral gavage at the dose of 150 mg/kg. The positive drug control group was administered at the dose of 5 mg/kg. The mice in each group were sacrificed by inhaling excess CO2 at 10 min, 30 min, 60 min, 120 min, 180 min, and 240 min after administration. The blood was collected into a 1.5 mL centrifuge tube, standing at room temperature for more than 30 min, and then centrifuged (3000 rpm, 10 min). The supernatant serum was aspirated, and stored at -80° C. for testing. After the blood was collected, the heart was cut with the thoracic aorta. Three parts of the heart were weighed and placed into cryovials, rapidly frozen in liquid nitrogen, and cryopreserved at -80° C. for testing. The aorta and aortic arch were weighed, rapidly frozen in liquid nitrogen, and cryopreserved at -80° C. for testing. The content of NO in the serum of C57BL/6 mice was determined by using the total NO test kit (Beyotime).

[2] = rat, in vivo
Description: Experimental method: Intravenous injection solutions (the administration concentrations of the tested compounds were 1 mg/kg) and oral gastric perfusates (the administration concentrations of the test compounds were 5 mg/kg) of the test compounds were prepared, and intravenously and orally administered to three SD rats, respectively. The concentrations of the whole blood for H130 at 0.083 h, 0.25 h, 0.5 h, 1 h, 2 h, 4 h, 8 h, and 24 h after administration were determined by LC-MS/MS, respectively. The pharmacokinetic parameters were compared by a drug-time curve. Sample pretreatment: 150 μL of the whole blood to be tested was aspirated accurately. 600 μL of internal standard solution (diluted to 0.5 μg/mL with methanol) was added, sufficiently mixed by a vortex mixer, and centrifuged at 13000 r/min for 20 min at 4° C. 3 μL of the supernatant was taken into a sample vial.
Chromatographic conditions: C18 reversed-phase chromatographic column; gradient elution with mobile phase A: water/acetonitrile (v:v=95:5) with 0.025% of formic acid and 1 mM of ammonium acetate added thereto, and mobile phase B: acetonitrile/water (v:v=95:5) with 0.025% of formic acid and 1 mM of ammonium acetate added thereto.

Molecule: 2-[4-(5,7-dimethoxy-4-oxo-3,4-dihydro-quinazolin-2-yl)-2,6-dimethyl-phenoxy]-ethyl 4-(2-oxo-3-nitroxymethyl-1,2,5-oxadiazol-3-methyl)oxy-4-oxo-butyrate [Compound H111]
- Amount of Released No [1]: 52.12 µM
- Upregulation of Apoa-I Mrna Level (ApoA-I mRNA): Active
- Aorta eNOS (apoE−/− mice): 127%
- ApoA1 (apoE−/− mice): 118%
- Heart eNOS (apoE−/− mice): 145%
- Serum NO (apoE−/− mice): 134%
- Serum eNOS (apoE−/− mice): 132%
- HDL-C (apoE−/− mice): 83 ± 13 mg/dL
- LDL-C (apoE−/− mice): 296 ± 29 mg/dL
- TC (apoE−/− mice): 1021 ± 57 mg/dL
- time after administration at which serum NO level rose to its maximum, then decreased (C57BL/6 mice): 1 h
- release of prototype compound H130 after administration [2]: can be rapidly released
- AUCRatio (Dosage Calibration) ([2]; iv, 1 mg/kg): 54.9%
- AUCRatio (Dosage Calibration) ([2]; po, 5 mg/kg): 41.8%

Molecule: COc1cc(OC)c2c(=O)[nH]c(-c3cc(C)c(OCCO[N+](=O)[O-])c(C)c3)nc2c1 [Compound H101, 2-(4-(2-nitrooxy-ethoxy)-3,5-dimethylphenyl)-5,7-dimethoxyquinazolin-4(3H)-one]
- Amount of Released No [1]: 5.97 µM
- Upregulation of Apoa-I Mrna Level (ApoA-I mRNA): Active
- Aorta eNOS (apoE−/− mice): 132%
- ApoA1 (apoE−/− mice): 126%
- Heart eNOS (apoE−/− mice): 135%
- Serum NO (apoE−/− mice): 126%
- Serum eNOS (apoE−/− mice): 128%
- HDL-C (apoE−/− mice): 78 ± 9 mg/dL
- LDL-C (apoE−/− mice): 273 ± 38 mg/dL
- TC (apoE−/− mice): 985 ± 68 mg/dL
- time after administration at which serum NO level rose to its maximum, then decreased (C57BL/6 mice): 2 h
- AUCRatio (Dosage Calibration) ([2]; SD, iv, 1 mg/kg): 37.7%
- AUCRatio (Dosage Calibration) ([2]; SD, po, 5 mg/kg): 42.4%
- release of prototype compound H130 after administration [2]: can be rapidly released

Molecule: COc1cc(OC)c2c(=O)[nH]c(-c3cc(C)c(OCCOC(=O)OC4COC5C(O[N+](=O)[O-])COC45)c(C)c3)nc2c1 (stereo not drawn) [Compound H119, 2-[4-(5,7-dimethoxy-4-oxo-3,4-dihydro-quinazolin-2-yl)-2,6-dimethyl-phenoxy]-ethyl (6-nitroxy-hexahydrofuro[3,2-b]furan-3-yl)-carbonate]
- Amount of Released No [1]: 1.24 µM
- Upregulation of Apoa-I Mrna Level (ApoA-I mRNA): Active
- Aorta eNOS (apoE−/− mice): 124%
- ApoA1 (apoE−/− mice): 114%
- Heart eNOS (apoE−/− mice): 138%
- Serum NO (apoE−/− mice): 127%
- Serum eNOS (apoE−/− mice): 126%
- HDL-C (apoE−/− mice): 88 ± 14 mg/dL
- LDL-C (apoE−/− mice): 308 ± 35 mg/dL
- TC (apoE−/− mice): 994 ± 85 mg/dL
- time after administration at which serum NO level rose to its maximum, then decreased (C57BL/6 mice): 1 h
- release of prototype compound H130 after administration [2]: can be rapidly released
- AUCRatio (Dosage Calibration) ([2]; iv, 1 mg/kg): 55.6%
- AUCRatio (Dosage Calibration) ([2]; po, 5 mg/kg): 0.84%

Reference: US10456405B2, “Nitric oxide-releasing prodrug molecule of substituted quinazolines” (ZHEJIANG HUAHAI PHARMACEUTICAL CO., LTD, priority 2015, dated 2019)
